Drawing on BindingDB's records for doi:10.1021/jm00037a008 (Institute, 1994), this text covers IC50 for 1 compound.

A short description of assay [1]: Evaluation for the inhibition of kappa opioid binding to bovine striatal membranes by the affinity ligand 1 nM [3H]U-69593.
Assay [2] in a line: Evaluation for the inhibition of delta opioid binding to bovine striatal membranes by the affinity ligand 0.2 nM [3H]p-Cl-DPDPE.

Turning to `CN1CC[C@]23c4c5ccc(O)c4O[C@H]2C(=O)CC[C@@]3(NC(=O)CS)C1C5` [1N-[10-hydroxy-4-methyl-14-oxo-12-oxa-4-azapentacyclo[9.6.1.01,13.05,17.07,18]octadeca-7,9,11(18)-trien-17-yl]-2-sulfanylacetamide], the IC50 (as a rule, the point on the concentration scale where inhibition reaches its midpoint) in assay [1] came to 0.041 µM; in assay [2], 0.012 µM.
